Measurements from patent US5061794A, “Cephalosporin derivatives, and antibacterial agents” (priority 1986, dated 1991).
Values after ≈ are worked out from the molar mass of the structure shown. Where two headings read alike, the source gives them in different places.

How the values were obtained:
E. cloacae Nek 39 = assay: in vitro antibacterial activity, agar plate dilution method (MIC); format: cell-based; settings: 10^6 CFU/ml; for Minimum Inhibitory Concentration (MIC): *E. cloacae Nek 39, lactamase-producing strain
Outline: (§1)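 MIC in μg/ml, read after 16 h at 37° C. on Mueller Hinton agar carrying graded compound levels; inoculum 10^6 CFU/ml from overnight Mueller Hinton broth.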

E. cloacae 963 = assay: as above; format: cell-based; settings: 10^6 CFU/ml
Outline: as §1

E. coli GN5482 = assay: as above; format: cell-based; settings: for Minimum Inhibitory Concentration (MIC): *E. coli GN5482, lactamase-producing strain, 10^6 CFU/ml; for MIC: Escherichia coli, GN5482, 16 h, read-out: Minimum Inhibitory Concentration (MIC)
Outline: as §1

K. pneumoniae No. 42 = assay: as above; format: cell-based; settings: 10^6 CFU/ml; for Minimum Inhibitory Concentration (MIC): *K. pneumoniae No. 42, lactamase-producing strain
Outline: as §1

S. marcescens No. 16-2 = assay: as above; format: cell-based; settings: for Minimum Inhibitory Concentration (MIC): *S. marcescens No. 16-2, lactamase-producing strain; for MIC: Serratia marcescens, NO.162, 16 h
Outline: as §1

S. marcescens IAM 1184 = assay: as above; format: cell-based; settings: for MIC: Serratia marcescens, IAM1184, 16 h, read-out: Minimum Inhibitory Concentration (MIC)
Outline: as §1

M. morganii GN5407 = assay: as above; format: cell-based; settings: 10^6 CFU/ml; for Minimum Inhibitory Concentration (MIC): *M. morganii GN5407, lactamase-producing strain
Outline: as §1

P. vulgaris HX-19 = assay: as above; format: cell-based; settings: P. vulgaris HX-19, 10^6 CFU/ml
Outline: as §1

S. aureus 209P NIHJ-JC1 = assay: as above; format: cell-based; settings: 10^6 CFU/ml, 37° C., 16 hours; for MIC: Staphylococcus aureus, 16 h
Outline: as §1

E. coli NIHJ JC2 = assay: as above; format: cell-based; settings: for Minimum Inhibitory Concentration (MIC): E. coli NIHJ JC2, 10^6 CFU/ml, 37° C., 16 hours; for MIC: Escherichia coli, NIHJJC2, 16 h, read-out: Minimum Inhibitory Concentration (MIC), E. coli NIHJ JC2, 10^6 CFU/ml, 37° C.
Outline: as §1

P. vulgaris No. 33 = assay: as above; format: cell-based; settings: 10^6 CFU/ml; for Minimum Inhibitory Concentration (MIC): *P. vulgaris No. 33, lactamase-producing strain
Outline: as §1

K. pneumoniae PCI-602 = assay: as above; format: cell-based; settings: 10^6 CFU/ml; for MIC: Klebsiella pneumoniae, PCI602, 16 h
Outline: as §1

K. oxytoca GN10650 = assay: as above; format: cell-based; settings: 10^6 CFU/ml; for Minimum Inhibitory Concentration (MIC): *K. oxytoca GN10650, lactamase-producing strain
Outline: as §1

Ps. cepacia 23 = assay: as above; format: cell-based, Pseudomonas cepacia; settings: Ps. cepacia 23, 10^6 CFU/ml; for MIC: Burkholderia cepacia, 16 h, read-out: Minimum Inhibitory Concentration (MIC)
Outline: as §1

E. coli CSH2 (RK1) = assay: microbe, parasite or virus in culture; format: cell-based; settings: 10^6 CFU/ml; for Minimum Inhibitory Concentration (MIC): *E. coli CSH2 (RK1), lactamase-producing strain
Outline: as §1

E. coli CSH(RE45) = assay: microbe, parasite or virus in culture; format: cell-based; settings: 10^6 CFU/ml; for Minimum Inhibitory Concentration (MIC): *E. coli CSH(RE45), lactamase-producing strain
Outline: as §1

A. calcoaceticus No. 4 = assay: in vitro antibacterial activity, agar plate dilution method (MIC); format: cell-based, Acinetobacter calcoaceticus; settings: 10^6 CFU/ml; for Minimum Inhibitory Concentration (MIC): A. calcoaceticus No. 4
Outline: as §1

Ps. aeruginosa AK 109 = assay: as above; format: cell-based, Pseudomonas aeruginosa; settings: for MIC: Pseudomonas aeruginosa, AK109, 16 h, read-out: Minimum Inhibitory Concentration (MIC)
Outline: as §1

Ps. aeruginosa IF03445 = assay: as above; format: cell-based, Pseudomonas aeruginosa; settings: 10^6 CFU/ml; for MIC: Pseudomonas aeruginosa, IF03445, 16 h, read-out: Minimum Inhibitory Concentration (MIC), Ps. aeruginosa IF03445; for Minimum Inhibitory Concentration (MIC): Ps. aeruginosa IF03445
Outline: as §1

Ps. aeruginosa AKR17 = assay: as above; format: cell-based, Pseudomonas aeruginosa; settings: for MIC: Pseudomonas aeruginosa, read-out: Minimum Inhibitory Concentration (MIC)
Outline: as §1

[1] = Enterobacter cloacae, 963, 16 h, read-out: Minimum Inhibitory Concentration (MIC), E. cloacae 963
[2] = S. marcescens IAM 1184, 10^6 CFU/ml
[3] = read-out: Minimum Inhibitory Concentration (MIC), K. pneumoniae PCI-602

Nc1nc(C(=NOC(C(=O)O)c2ccccc2)C(=O)NC2C(=O)N3C(C(=O)O)=C(CSc4nc(C(=O)O)c(-c5ccc(O)c(O)c5)s4)CSC23)cs1 (single isomer, unassigned) [Example 51 DB]
Minimum Inhibitory Concentration (MIC) (E. cloacae Nek 39): 0.05 µg/mL | MIC (E. cloacae 963; [1]): 0.05 µg/mL (≈ 0.0637 µM) | Minimum Inhibitory Concentration (MIC) (E. coli GN5482): 0.78 µg/mL | Minimum Inhibitory Concentration (MIC) (K. pneumoniae No. 42): 0.05 µg/mL | Minimum Inhibitory Concentration (MIC) (S. marcescens No. 16-2; 10^6 CFU/ml): 0.78 µg/mL | Minimum Inhibitory Concentration (MIC) (S. marcescens IAM 1184; [2]): 0.05 µg/mL | Minimum Inhibitory Concentration (MIC) (M. morganii GN5407): 0.05 µg/mL | Minimum Inhibitory Concentration (MIC) (P. vulgaris HX-19): < 0.006 µg/mL | Minimum Inhibitory Concentration (MIC) (S. aureus 209P NIHJ-JC1; S. aureus 209P NIHJ-JC1): 25 µg/mL | Minimum Inhibitory Concentration (MIC) (E. coli NIHJ JC2): 0.39 µg/mL | Minimum Inhibitory Concentration (MIC) (P. vulgaris No. 33): 0.0125 µg/mL | Minimum Inhibitory Concentration (MIC) (K. pneumoniae PCI-602; K. pneumoniae PCI-602): < 0.006 µg/mL | Minimum Inhibitory Concentration (MIC) (K. oxytoca GN10650): 0.025 µg/mL | Minimum Inhibitory Concentration (MIC) (Ps. cepacia 23): < 0.006 µg/mL | Minimum Inhibitory Concentration (MIC) (E. coli CSH2 (RK1)): 0.0125 µg/mL | Minimum Inhibitory Concentration (MIC) (E. coli CSH(RE45)): 0.0125 µg/mL | Minimum Inhibitory Concentration (MIC) (A. calcoaceticus No. 4): 0.1 µg/mL | MIC (Ps. aeruginosa AK 109): 0.39 µg/mL (≈ 0.497 µM) | MIC (Ps. aeruginosa IF03445): 0.39 µg/mL (≈ 0.497 µM) | MIC (Ps. aeruginosa AKR17; AKR17, 16 h): 0.39 µg/mL (≈ 0.497 µM)

CC(=O)Oc1ccc(-c2nc(SCC3=C(C(=O)O)N4C(=O)C(NC(=O)C(=NOC(C(=O)O)c5ccccc5)c5csc(N)n5)C4SC3)sc2CC(=O)O)cc1OC(C)=O (single isomer, unassigned) [Example 61 DA]
Minimum Inhibitory Concentration (MIC) (E. cloacae Nek 39): 0.1 µg/mL | MIC (E. cloacae 963; [1]): 0.39 µg/mL (≈ 0.442 µM) | MIC (E. coli GN5482): 0.39 µg/mL (≈ 0.442 µM) | Minimum Inhibitory Concentration (MIC) (K. pneumoniae No. 42): 0.1 µg/mL | Minimum Inhibitory Concentration (MIC) (S. marcescens No. 16-2; 10^6 CFU/ml): 0.78 µg/mL | MIC (S. marcescens IAM 1184; [2]): 0.05 µg/mL (≈ 0.0566 µM) | Minimum Inhibitory Concentration (MIC) (M. morganii GN5407): 0.05 µg/mL | Minimum Inhibitory Concentration (MIC) (P. vulgaris HX-19): < 0.006 µg/mL | MIC (S. aureus 209P NIHJ-JC1; S. aureus 209P NIHJ-JC1, read-out: Minimum Inhibitory Concentration (MIC)): 25 µg/mL (≈ 28.3 µM) | Minimum Inhibitory Concentration (MIC) (E. coli NIHJ JC2): 0.78 µg/mL | Minimum Inhibitory Concentration (MIC) (P. vulgaris No. 33): 0.025 µg/mL | MIC (K. pneumoniae PCI-602; [3]): < 0.006 µg/mL | Minimum Inhibitory Concentration (MIC) (K. oxytoca GN10650): 0.05 µg/mL | MIC (Ps. cepacia 23): < 0.006 µg/mL | Minimum Inhibitory Concentration (MIC) (E. coli CSH2 (RK1)): 0.0125 µg/mL | Minimum Inhibitory Concentration (MIC) (E. coli CSH(RE45)): 3.12 µg/mL | Minimum Inhibitory Concentration (MIC) (A. calcoaceticus No. 4): 0.1 µg/mL | MIC (Ps. aeruginosa AK 109): 0.39 µg/mL (≈ 0.442 µM) | Minimum Inhibitory Concentration (MIC) (Ps. aeruginosa IF03445): 0.39 µg/mL | MIC (Ps. aeruginosa AKR17; AKR17, 16 h): 0.39 µg/mL (≈ 0.442 µM)

CC(=O)Oc1ccc(-c2nc(SCC3=C(C(=O)O)N4C(=O)C(NC(=O)C(=NOC(C(=O)O)c5ccccc5)c5csc(N)n5)C4SC3)sc2CC(=O)O)cc1OC(C)=O (single isomer, unassigned) [Example 61 DB]
Minimum Inhibitory Concentration (MIC) (E. cloacae Nek 39): 0.39 µg/mL | Minimum Inhibitory Concentration (MIC) (E. cloacae 963; E. cloacae 963): 0.78 µg/mL | Minimum Inhibitory Concentration (MIC) (E. coli GN5482): 1.56 µg/mL | Minimum Inhibitory Concentration (MIC) (K. pneumoniae No. 42): 0.39 µg/mL | MIC (S. marcescens No. 16-2; read-out: Minimum Inhibitory Concentration (MIC)): 3.12 µg/mL (≈ 3.53 µM) | MIC (S. marcescens IAM 1184): 0.39 µg/mL (≈ 0.442 µM) | Minimum Inhibitory Concentration (MIC) (M. morganii GN5407): 0.39 µg/mL | Minimum Inhibitory Concentration (MIC) (P. vulgaris HX-19): 0.05 µg/mL | Minimum Inhibitory Concentration (MIC) (S. aureus 209P NIHJ-JC1; S. aureus 209P NIHJ-JC1): 50 µg/mL | MIC (E. coli NIHJ JC2): 3.12 µg/mL (≈ 3.53 µM) | Minimum Inhibitory Concentration (MIC) (P. vulgaris No. 33): 0.2 µg/mL | MIC (K. pneumoniae PCI-602; K. pneumoniae PCI-602, read-out: Minimum Inhibitory Concentration (MIC)): 0.025 µg/mL (≈ 0.0283 µM) | Minimum Inhibitory Concentration (MIC) (K. oxytoca GN10650): 0.2 µg/mL | Minimum Inhibitory Concentration (MIC) (Ps. cepacia 23): < 0.006 µg/mL | Minimum Inhibitory Concentration (MIC) (E. coli CSH2 (RK1)): 0.05 µg/mL | Minimum Inhibitory Concentration (MIC) (E. coli CSH(RE45)): 12.5 µg/mL | Minimum Inhibitory Concentration (MIC) (A. calcoaceticus No. 4): 0.39 µg/mL | Minimum Inhibitory Concentration (MIC) (Ps. aeruginosa AK 109; Ps. aeruginosa AK 109, 10^6 CFU/ml): 1.56 µg/mL | Minimum Inhibitory Concentration (MIC) (Ps. aeruginosa IF03445): 3.12 µg/mL | Minimum Inhibitory Concentration (MIC) (Ps. aeruginosa AKR17; Ps. aeruginosa AKR17, 10^6 CFU/ml): 0.78 µg/mL

CO/N=C(\C(=O)N[C@@H]1C(=O)N2C(C(=O)O)=C(CSc3nnc(-c4ccc(O)c(O)c4)o3)CS[C@H]12)c1csc(N)n1 [Ex. 1, sodium 7β-[2-(2-aminothiazol-4-yl)-2-methoxyiminoacetamido]-3-[5-(3, 4dihydroxyphenyl)-1,3,4-oxadiazol-2-yl]thiomethyl-3-cephem-4-carboxylate]
MIC (E. cloacae Nek 39; Enterobacter cloacae, NEK39, 16 h, read-out: Minimum Inhibitory Concentration (MIC), *E. cloacae Nek 39, lactamase-producing strain): 0.05 µg/mL | MIC (E. cloacae 963; Enterobacter cloacae, 16 h, E. cloacae 963, read-out: Minimum Inhibitory Concentration (MIC)): < 0.006 µg/mL | MIC (E. coli GN5482): 0.39 µg/mL | MIC (K. pneumoniae No. 42; Klebsiella pneumoniae, NO.42, 16 h, read-out: Minimum Inhibitory Concentration (MIC), *K. pneumoniae No. 42, lactamase-producing strain): 0.025 µg/mL | MIC (S. marcescens No. 16-2; read-out: Minimum Inhibitory Concentration (MIC), *S. marcescens No. 16-2, lactamase-producing strain, 10^6 CFU/ml): 0.78 µg/mL | MIC (S. marcescens IAM 1184; [2]): < 0.006 µg/mL | MIC (M. morganii GN5407; Morganella morganii, GN5407, 16 h, read-out: Minimum Inhibitory Concentration (MIC), *M. morganii GN5407, lactamase-producing strain): 0.0125 µg/mL | MIC (P. vulgaris HX-19; Proteus vulgaris, HX19, 16 h, read-out: Minimum Inhibitory Concentration (MIC)): < 0.006 µg/mL | MIC (S. aureus 209P NIHJ-JC1; read-out: Minimum Inhibitory Concentration (MIC), S. aureus 209P NIHJ-JC1): 1.56 µg/mL | MIC (E. coli NIHJ JC2): 0.05 µg/mL | MIC (P. vulgaris No. 33; Proteus vulgaris, NO.33, 16 h, read-out: Minimum Inhibitory Concentration (MIC), *P. vulgaris No. 33, lactamase-producing strain): 0.0125 µg/mL | MIC (K. pneumoniae PCI-602; [3]): < 0.006 µg/mL | MIC (K. oxytoca GN10650; Klebsiella oxytoca, GN10650, 16 h, read-out: Minimum Inhibitory Concentration (MIC), *K. oxytoca GN10650, lactamase-producing strain): 0.39 µg/mL | MIC (Ps. cepacia 23): 0.1 µg/mL | MIC (E. coli CSH2 (RK1); Escherichia coli, 16 h, read-out: Minimum Inhibitory Concentration (MIC), *E. coli CSH2 (RK1), lactamase-producing strain): < 0.006 µg/mL | MIC (E. coli CSH(RE45); Escherichia coli, 16 h, read-out: Minimum Inhibitory Concentration (MIC), *E. coli CSH(RE45), lactamase-producing strain): 0.78 µg/mL | MIC (A. calcoaceticus No. 4; Acinetobacter calcoaceticus, NO.4, 16 h, read-out: Minimum Inhibitory Concentration (MIC), A. calcoaceticus No. 4): 0.1 µg/mL | MIC (Ps. aeruginosa AK 109): 0.39 µg/mL | MIC (Ps. aeruginosa IF03445): 0.78 µg/mL | MIC (Ps. aeruginosa AKR17; 16 h, Ps. aeruginosa AKR17, 10^6 CFU/ml): > 100 µg/mL
